Measurements published in patent US6335323B1, “Compositions for the treatment of peripheral neuropathies containing antidepressants and/or monoamine oxidase inhibitors and/or vitamin B12 and/or precursors or inducers of a neurotransmitter” (The WWK Trust, priority 1996, dated 2002).

Columns and labels:
[1] = system: neuropathy related to HIV; experiment: Clinical case report, HIV related peripheral neuropathy (Case #9); format: in vivo, human; settings: result in words
Description: A person was HIV positive and complained of moderate peripheral neuropathy including painful neuropathy. They also had mild diabetes of short duration but clinically their neuropathy was diagnosed as that related to HIV. […] They were additionally commenced on L-phenylalanine 500 mg twice daily, whereafter they reported an approximate further 50% improvement in the symptoms of their painful neuropathy.

diabetic neuropathy [2] = experiment: Clinical case reports of patients with diabetic neuropathy; format: in vivo, human; settings: single patient case reports; result in words
Text: The onset of neuropathy was thought to be due to poor control of diabetes. Neuropathic symptoms increased in severity over several years with development of severe diabetic neuropathy including diabetic amyotrophy, painful neuropathy with spasm, diabetic autonomic neuropathy and decreased sensation in the extremities, with numbing and loss of vibration sense. Electromyography confirmed the diagnosis of diabetic neuropathy.
A person with non-insulin dependent diabetes with very severe diabetic neuropathy, including diabetic amyotrophy and bedbound, resistant to current therapies, was commenced on vitamin B12 injections (1 mg at two-week intervals) and L-phenylalanine (as a metabolite of aspartame) 500 mg twice a day.
This case studied here is of the same person with diabetic neuropathy as in case #1, but after the original observation in case #1. The patient was subsequently continued on the same vitamin B12 injections and phenylalanine (500 mg twice daily) only.
A person with non-insulin dependent diabetes for 15 years with reasonable control, developed peripheral painful diabetic neuropathy of two months duration. […]
A person had severe diabetic peripheral neuropathy and resultant Charcot foot joints. […] Vibration sense initially could not be detected at a level below the knee.

diabetic neuropathy [3] = settings: cited from earlier work; for effectiveness against diabetic neuropathy symptoms: prior art statement
[4] = system: vitamin B12 neuropathy and mild alcoholic neuropathy; experiment: Clinical case report, vitamin B12 neuropathy and mild alcoholic neuropathy (Case #4); format: in vivo, human; settings: result in words
Text: A person with vitamin B12 neuropathy and mild alcoholic neuropathy was studied. Clinical progress with vitamin B12 injections alone was insignificant. […] Previously they required the assistance of another person to walk.

Compound: CN(C)CCC=C1c2ccccc2CCc2ccccc21 [amitriptyline]
- clinical effect on neuropathy [1]: some mild beneficial effects

Compound: NC(=O)N1c2ccccc2C=Cc2ccccc21 [carbemazepine]
- clinical response of diabetic neuropathy signs and symptoms (diabetic neuropathy [2]): ineffective
- effectiveness against diabetic neuropathy symptoms (diabetic neuropathy [3]): only to be mildly effective

Compound: CN(C)CC/C=C1\c2ccccc2CSc2ccccc21 [dothiepin]
- clinical response of diabetic neuropathy signs and symptoms (diabetic neuropathy [2]): mild beneficial effect

Compound: CCCCC/C=C\C/C=C\C/C=C\CCCCC(=O)O [gamolenic acid]
- effectiveness against diabetic neuropathy symptoms (diabetic neuropathy [3]): may reduce symptoms
- progression of abnormalities in nerve conduction studies (diabetic neuropathy [3]; recent clinical trials): prevent the progression

Compound: Cc1cccc(C)c1OCC(C)N (centres unmarked) [mexilitene]
- effectiveness against diabetic neuropathy symptoms (diabetic neuropathy [3]): only to be mildly effective

Compound: vitamin B12
- clinical progress [4]: insignificant
